# Measured values reported in US20070255041A1, “Bioengineered Vehicles for Targeted Nucleic Acid Delivery” (priority 2000, published 2007).
# B1: C6.5-H1: C6.5 sFv′ conjugated to the human histone H1 peptide (conjugate)
# scFv: QVQLLQSGAELKKPGESLKISCKGSGYSFTSYWIAWVRQMPGKGLEYMGLIYPGDSDTKYSPSFQGQVTISVDKSVSTAYLQWSSLKPSDSAVYFCARHDVGYCSSSNCAKWPEYFQHWGQGTLVTVSSGGGGSGGGGSGGGGSQSVLTQPPSVSAAPGQKVTISCSGSSSNIGNNYVSWYQQLPGTAPKLLIYGHTNRPAGVPDRFSGSKSGTSASLAISGFRSEDEADYYCAAWDDSLSGWVFGGGTKLTVLGHHHHHHGGGGC
# peptide: AKKAKSPKKAKAAKPKKAPKSPAKAK
# Assays:
# [1] = system: 3T3 cells (c-erbB-2 non-expressing); test: Transfection of 3T3 cells with pXL3031 luciferase plasmid; type: cell-based; conditions: 10% serum, mean of three measures
# Procedure: (§1) Transfections were done using C6.5-H1, C6ML3-9 sFv′-H1, C6ML3-9 sFv′-P1 (comprising C6ML3-9 coupled to human protamine P1 peptide) and C6ML3-9 sFv′-salmon protamine (C6ML3-9-SP). Conjugates were mixed in […] with pXL3031 (pCOR Luc^+) reporter plasmid at different ratios and, after a 10 minute incubation, used to transfect c-erbB-2 expressing (3T3-HER2) or non-expressing (3T3) cell lines. Transfection were performed in the presence of 10% fetal calf serum (FCS) for 3T3-HER2, or 10% calf serum (CS) for 3T3. After 24 hours of incubation, cells were washed twice with PBS and lysed with 200 μl of cell culture lysis reagent (Promega). Luciferase expression was quantified using a luciferase assay kit (Promega) and a Lumat LB9501 luminometer (EG and G). Light emission (RLU) was normalized to the protein concentration of each sample, measured using the Pierce BCA assay. Conditions of transfection are summarized below for each experiment.
# (§2) All transfections were done in the presence of 10% serum. Best transfection conditions are indicated for each compound. All complexes with sFv′ conjugates were formed in 20 mM NaCl, and all complexes with RPR120535 were formed in 20 mM NaHCO3150 mM NaCl. Values correspond to the mean of three different measures of the same assay.
# [2] = system: 3T3-HER2 cells (c-erbB-2 expressing); test: Transfection of 3T3-HER2 cells with pXL3031 luciferase plasmid; type: cell-based; conditions: for RLU/μg of cell proteins: 10% serum, mean of three measures
# Procedure: as §1, §2
# MCF-7 cells = test: Luciferase reporter gene delivery to erbB-2 negative control cells; type: cell-based; conditions: FIG. 19
# SK-OV-3 cells [3] = test: Luciferase reporter gene delivery to erbB-2 positive cells; type: cell-based, human
# Procedure: Gene delivery experiments were carried out with the anti-erbB-2 sFv′-[salmon protamine]-DNA complex (C6.5 sFv′-SP-DNA or C6ML3-9 sFv′-SP-DNA). The reporter DNA plasmid was the pGL3-control from Promega, which encodes the luciferase gene under control of the SV40 early promoter and enhancers. The erbB-2 positive cell line used in the study was SK-OV-3, a human ovarian cancer cell line. 200 ng of pGL3 reporter plasmid DNA was incubated with increasing amounts of either the sFv′-[salmon protamine] conjugates (sFv′-SP), or the sFv′ mixed with salmon protamine (SP) alone as described. Formation of the protein-DNA complex was confirmed by gel mobility shift analysis (data not shown). The mixture of protein and DNA were then incubated with SK-OV-3 cells in the absence or presence of 100 μM chloroquine. The protein-DNA mixture was removed from the cell culture after a 20 hour incubation. Cells were harvested for luciferase assays at about 40 hours post-incubation using a Dynex MLX Luminometer. The experiment data presented are an averaged data from quadruplet samples of a typical experiment.
# SK-OV-3 cells [4] = test: pGeneGrip Rhodamine/GFP plasmid delivery, fluorescent microscopy, erbB-2 positive cells; type: cell-based, human; conditions: SK-OV-3, at 48 hours
# Source text: pGeneGrip Rhodamine/GFP plasmid (Gene Therapy Systems) was used as another reporter plasmid for studying C6.5 sFv′-SP and C6ML3-9 sFv′-SP-mediated gene delivery. In this case, plasmid DNA encoding green fluorescent protein (GFP) was labeled with rhodamine, which allows one to follow internalization of the plasmid DNA as well as the expression of GFP. This reporter facilitated evaluation of the gene delivery efficiency at both DNA and protein expression levels. […] SK-OV-3 and MCF-7 cells were incubated with the protein/DNA complexes and fixed at 6, 24, 48, and 72 hours post-incubation for fluorescent microscopy. FIG. 21 represents the data from the 48 hour time point. […] The rhodamine labeled DNA could be seen inside of SK-OV-3 cells at 24 hours (data not shown). However, the GFP gene expression, was very low, about 1-2% cells being GFP positive in the case of C6ML3-9 sFv′-SP-mediated delivery at 48 hours. It should be noted that, although low, GFP expression level still correlates with the amount of DNA inside of the cells (FIG. 21, compare C6.5 sFv′-SP-DNA with that C6ML3-9 sFv′-SP-DNA). […] The low expression of GFP may be caused by the difficulty of plasmid DNA either escaping from the endosomes or reaching the nucleus.
# [5] = system: plasmid DNA (pGL-control or pXL3031); test: Gel mobility shift analysis of complex formation with plasmid DNA; type: binding; conditions: 5.8 pmole (360 ng) conjugate; FIG. 18
# Procedure: The ability of the anti-erbB-2 C6ML3-9 sFv′-salmone protamine (SP) conjugates to complex with plasmid DNA was tested by a gel mobility shift analysis.
# The DNA was added last, and the mixture incubated on ice for 1 to 1.5 hour (in the case of kinetics studies, incubation time was from 5 minutes to 60 minutes as indicated). 2 μl of loading buffer (50% glycerol in 1×TE with dye) was added to the 20 μl reaction. The reaction was electrophoresed on 0.8% agarose gel in 1×TAE, 150 V for about an hour at room temperature and stained with EtBr overnight.
# [6] = 3T3-HER2, 7 μg/μg of DNA, no chloroquine
molecule,measurement,setting,value
"CCCCCCCCCCCCCCCCCCN(CCCCCCCCCCCCCCCCCC)C(=O)CNC(=O)CNCCCNCCCCNCCCN [RPR120535, reference compound]",RLU/μg of cell proteins,"[1]; 6 nmoles/μg of DNA, no chloroquine",26100000 RLU/μg of cell proteins
same,RLU/μg of cell proteins,"[2]; 3T3-HER2, 6 nmoles/μg of DNA, no chloroquine",2980000 RLU/μg of cell proteins
C6ML3-9 sFv′-H1: C6ML3-9 sFv′ reacted with maleimide-H1 peptide (residues 166 to 192 of human histone H1),RLU/μg of cell proteins,"[1]; 7 μg/μg of DNA, no chloroquine",0 (±0) RLU/μg of cell proteins
same,RLU/μg of cell proteins,[2]; [6],27400 (±6030) RLU/μg of cell proteins
same,increase in transfection efficiency,"[2]; 3T3-HER2, increasing conjugate to DNA mass ratio from 4 to 10, FIG. 26",10 fold
same,transfection activity on addition of free C6ML3-9 sFv′ or C6ML3-9 sFv′-H1 complexed to pBks plasmid,"[2]; competition, specificity of gene transfer, FIG. 25",could be reduced
C6ML3-9 sFv′-P1: C6ML3-9 coupled to human protamine P1 peptide (residues 11 to 28),RLU/μg of cell proteins,"[1]; 6 μg/μg of DNA, 150 μM chloroquine",9 (±15) RLU/μg of cell proteins
same,RLU/μg of cell proteins,"[2]; 3T3-HER2, 6 μg/μg of DNA, 150 μM chloroquine",10024 (±3757) RLU/μg of cell proteins
C6ML3-9 sFv′-SP: C6ML3-9 sFv′ coupled via Sulfo-SMCC at its C-terminal sulfhydryl to salmon protamine,luciferase activity in MCF-7 cells (erbB-2 negative control),MCF-7 cells,minimal luciferase activity
same,luciferase gene delivery to SK-OV-3 cells,"SK-OV-3 cells [3]; 200 ng pGL3-control plasmid, 20 hour incubation, luciferase assay about 40 hours post-incubation, FIG. 19",delivered luciferase reporter plasmids into SK-OV-3 cells
same,chloroquine dependence of luciferase gene delivery to SK-OV-3 cells,"SK-OV-3 cells [3]; absence or presence of 100 μM chloroquine, FIG. 20",chloroquine-dependent
same,luciferase gene delivery to SK-OV-3 cells after pre-incubating the cells with free C6ML3-9 sFv′,"SK-OV-3 cells [3]; competition, data not shown",could be competed away
same,cells being GFP positive (GFP gene expression),SK-OV-3 cells [4],1-2%
same,RLU/μg of cell proteins,"[1]; 4 μg/μg of DNA, 200 μM chloroquine",1080 (±715) RLU/μg of cell proteins
same,time in which the conjugate-DNA complex could form,[5],5 min
same,RLU/μg of cell proteins,"[2]; 3T3-HER2, 4 μg/μg of DNA, 200 μM chloroquine",220000 (±20000) RLU/μg of cell proteins
B1,RLU/μg of cell proteins,"[1]; 7 μg/μg of DNA, no chloroquine",6 (±7) RLU/μg of cell proteins
same,RLU/μg of cell proteins,[2]; [6],659 (±240) RLU/μg of cell proteins
